{"source": "paper PMC3481155", "about": "“AhR activation underlies the CYP1A autoinduction by A-998679 in rats” (Frontiers in Genetics, 2012)", "key": {"AhR [1]": {"biological_target": "T1, AhR (Homo sapiens, UniProt P35869)", "T1 construct": "endogenous in cells; host or cells: HepG2", "T1 sequence (P35869 11-848)": "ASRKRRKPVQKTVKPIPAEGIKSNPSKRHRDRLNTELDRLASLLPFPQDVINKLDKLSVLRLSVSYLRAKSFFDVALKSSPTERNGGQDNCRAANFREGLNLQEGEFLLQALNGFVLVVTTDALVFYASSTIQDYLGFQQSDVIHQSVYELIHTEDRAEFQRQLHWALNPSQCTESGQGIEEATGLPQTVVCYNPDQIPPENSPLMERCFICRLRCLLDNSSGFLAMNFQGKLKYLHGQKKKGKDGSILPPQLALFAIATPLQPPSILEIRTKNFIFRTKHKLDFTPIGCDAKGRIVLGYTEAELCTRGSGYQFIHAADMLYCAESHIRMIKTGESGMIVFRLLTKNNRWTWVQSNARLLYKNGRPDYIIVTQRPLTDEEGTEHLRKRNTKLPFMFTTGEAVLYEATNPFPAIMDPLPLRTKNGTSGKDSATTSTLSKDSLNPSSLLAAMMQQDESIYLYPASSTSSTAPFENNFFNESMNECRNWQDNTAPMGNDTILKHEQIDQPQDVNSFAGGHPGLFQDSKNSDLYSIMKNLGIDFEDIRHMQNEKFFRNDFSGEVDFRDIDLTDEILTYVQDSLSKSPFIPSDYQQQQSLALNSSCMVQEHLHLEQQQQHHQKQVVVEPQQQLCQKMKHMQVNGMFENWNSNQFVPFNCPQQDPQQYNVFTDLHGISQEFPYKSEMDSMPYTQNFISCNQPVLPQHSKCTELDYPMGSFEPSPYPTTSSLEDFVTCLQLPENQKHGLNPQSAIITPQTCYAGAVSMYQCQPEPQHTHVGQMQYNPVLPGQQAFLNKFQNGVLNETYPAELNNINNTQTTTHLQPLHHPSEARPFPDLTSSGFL", "assay": "AhR nuclear translocation assay in HepG2 cells", "format": "cell-based", "conditions": "2 μM", "experimental": "HepG2 cells were plated in Lab-Tek II Chamber slides (Nalgene, Rochester, NY) at a seeding density of 50,000 cells/well. The cells were allowed to attach overnight and were treated for 2 h or 24 h with 10 or 40 μM A-998679, 2 μM 3-methylchloranthrene (3-MC) as a positive control, or 0.1% (v/v) DMSO vehicle. The cells were fixed in fresh 3% paraformaldehyde solution in PBS followed by a PBS wash, and were then permeabilized for 5 min using 0.2% Triton X-100 in PBS followed by another PBS wash. The cells were then incubated with blocking buffer consisting of 1% BSA/PBS solutions and immediately incubated with a 1:50 dilution of rabbit polyclonal antibody to AhR (Abcam, Cambridge, MA catalog# 63636) for 1 h at 37°C. Cells were then washed with PBS, re-blocked for 10 min, and stained with an Alexa 546 donkey anti-rabbit secondary antibody (diluted 1:200; Invitrogen Life Technologies) for 45 min at 37°C. The cells were then washed with PBS, stained with 0.5 μM Hoescht solution for 15 min, and again washed with PBS. The chamber slides were sealed and examined under the microscope. Images were acquired with a SPOT RT SE digital camera (Diagnostic Instruments, Sterling Heights, MI) mounted on a Leica (Wetzlar, Germany) DMIRE inverted florescence microscope using a 20× objective. Image acquisition was done using Metamorph® software (Molecular Devices, Sunnyvale, CA) and percent translocation of the AhR probe was quantitated using MetaXpress (Molecular Devices). Twenty microscope fields were evaluated per well (~3000–6000 cells/well)."}, "[2]": {"biological_target": "T2, aryl hydrocarbon receptor (AhR) (Homo sapiens, UniProt P35869)", "T2 construct": "endogenous in cells; host or cells: HepG2", "T2 sequence (P35869 11-848)": "T1 sequence (P35869 11-848)", "assay": "AhR luciferase reporter assay in HepG2 cells", "format": "cell-based", "experimental": "HepG2 cells were transiently transfected overnight with the construct (1200 bp portion of the human CYP1A1 promoter region containing 2 copies of the functional consensus sequence for the DRE in luc2P luciferase vector (SwitchGear Genomics cat# 114555, Menlo Park, CA) using lipofectin (Invitrogen Life Technologies) at 500 ng construct per million cells. Following transfection, the cells were replated in a 96-well format and dosed for 24 h with 0.1% (v/v) DMSO vehicle, 3-MC at 0.05, 0.1, 0.5, 1, 5, 10 μM, and A-998679 at 1.5625, 3.125, 6.25, 12.5, 25, and 50 μM. Luminescence signal was generated using the Dual-Luciferase Reporter Assay System (Promega, Madison, WI) and detected with a Tecan Genios Pro reader (Männedorf, Switzerland)."}, "AhR [3]": {"tested_on": "AhR", "parameters": "method as in Jinno et al., 2006", "conditions": "ref Jinno et al., 2006, read-out: reporter assay EC50; cited from earlier work"}, "AhR [4]": {"tested_on": "AhR", "parameters": "method as in Nguyen and Bradfield, 2008; Mitchell and Elferink, 2009", "conditions": "ref Nguyen and Bradfield, 2008, Mitchell and Elferink, 2009; cited from earlier work"}}}
{"smiles": "Cc1ccc2cc3c(ccc4ccccc43)c3c2c1CC3", "note": "[3MC, 3-methylcholanthrene, reference compound]", "values": [{"measurement": "AhR nuclear staining (% positive cells) 2 h", "setting": "AhR [1]; 2 h, vehicle 15.6", "result": 26.3, "unit": "% positive cells"}, {"measurement": "AhR nuclear staining (% positive cells) 24 h", "setting": "AhR [1]; 24 h, vehicle 3.4", "result": 11.1, "unit": "% positive cells"}, {"measurement": "potency to activate AhR relative to A-998679", "setting": "[2]; luciferase reporter", "result": "~ 8 fold"}, {"measurement": "EC50", "setting": "[2]; luciferase reporter with human DRE construct, 24 h, read-out: EC50, activation of AhR signaling", "result": 2.1, "unit": "µM"}, {"measurement": "maximal increase over vehicle", "setting": "[2]; luciferase reporter, 24 h", "result": 97, "unit": "fold"}]}
{"smiles": "C[C@]12CCc3c(ccc4cc(O)ccc34)[C@@H]1CCC2=O", "note": "[equilenin]", "values": [{"measurement": "EC50", "setting": "AhR [3]", "result": "~10", "unit": "µM"}]}
{"smiles": "Clc1cc2c(cc1Cl)Oc1cc(Cl)c(Cl)cc1O2", "note": "[TCDD, 2,3,7,8-Tetrachlorodibenzo-p-dioxin]", "values": [{"measurement": "binding EC50", "setting": "AhR [4]", "result": "~ pM to nM range"}]}
